Consider 15 compounds from patent publication US20230227484A1, “PYRIMIDINE COMPOUND AS AXL INHIBITOR” (NANJING CHIA TAI TIANQING PHARMACEUTICAL CO., LTD., priority 2020, published 2023).

Data set [1] is described as follows: Pharmacokinetic study of compounds on ICR mice. It is filed as in vivo. The conditions noted are these: mouse, po, male ICR mice, plasma; for Cmax / Tmax / half-life: 10 mg-kg^1 by gavage; for AUC(0-t): 10 mg/kg-kg^1 by gavage, read-out: AUC0-24. On the procedure: Each compound is prepared with DMSO into a 10 mg/mL stock solution.
Preparation of mixed solvent: Tween 80: PEG400: Water=1:9:90 (v/v/v)
450 μl of the compound DMSO stock solution with a concentration of 10 mg/nmL is accurately sucked into a glass bottle, and added with an appropriate volume of DMSO and mixed solvent, wherein a ratio of the solvent in the final formulation is DMSO: mixed solvent (v/v)=10:90. The mixed solution is vortexed (or ultrasonically treated), and dispersed uniformly to obtain 4.5 mL. administration test solutions with a concentration of 1 mg/nL, respectively.
Male 6-10 week old ICR mice (sourced from: Beijing Vital River Laboratory Animal Technology Co., Ltd.) are taken, 6 mice in each group. The mice are fasted overnight and fed 4 h after the administration. On the day of the experiment, the mice are administrated with 10 mg-kg^1 of compound test solution by gavage. After administration, about 100 μL of blood is harvested from the orbits of the mice at 0 min, 5 mmn, 15 mmn, 30 min, 14 h 2 h, 4 h, 8 h, and 24 h, and placed in EDTA-K2 anticoagulant tubes. The whole blood sample is centrifuged at 1500 to 1600 g for 10 mm, and the plasma obtained by separation is stored in a refrigerator at −40 to −20° C. for biological sample analysis. The blood drug concentration is determined by an LC-MS/MS method.
A non-compartmental model in Pharsight Phoenix 7.0 is used to calculate pharmacokinetic parameters. The specific results are shown in 5 the table below.

In data set [2] the test system is MV-4-11 (human myeloid monocytic leukemia cell line). The experiment in a line: Proliferation inhibition activity of compounds to MV-4-11 cells (CellTiter-Glo). The conditions noted are these: MV4-11 cells, 72 h dosing. It is filed as cell-based. The method, then:
MV-4-11 (human myeloid monocytic leukemia cell line, culture medium: JIMDM+10% fetal bovine serum) is purchased from Cobioer Biosciences Co., Ltd and cultured in a 5% C02 incubator at 37° C. The cells in a logarithmic growth phase are plated in a 96-well plate at cell densities of 8000 cells/well, 6000 cells/well, 2000 cells/well, 2000 cells/well and 3000 cells/well, and a blank control group is set at the same time.
A compound to be tested and the positive drug are dissolved in dimethyl sulfoxide to prepare a 10 mM stock solution, which is then stored in −80° C. refrigerator for long-time storage. After the cells are plated for 24 h, the 10 mM compound stock solution is diluted with dimethyl sulfoxide to obtain a working solution having a 200-fold concentration (the highest concentration is 200 or 2000 μM, a 3-fold gradient, a total of 10 concentrations), and 3 μL of the working solution of each concentration is added to 197 μL of complete medium, and diluted into a working solution of 3-fold concentration. 50 μL of the working solution is then taken and added to a 100 μL cell culture medium (a final concentration of dimethyl sulfoxide is 0.5%, v/v), and two complex holes are set for each concentration. After 72 h of dosing treatment, 50 μl of CellTiter-Glo® (purchased from Promega) is added to each well. Fluorescence signals are measured on Envision (PerkinElmer) according to an operating procedure of the specification. GraphPad Prism 5 software log(inhibitor) vs. response-Variable slope is used to fit a dose-response curve, so as to obtain the IC50 value of the compound to the inhibition of cell-proliferation. The calculation formulation of the inhibition rate is as follows: […]
wherein: signal value of subject: a mean fluorescence signal of cell+medium+compound group; signal value of blank group: a mean fluorescence signal of medium group (containing 0.5% DMSO); signal value of negative control group: a mean fluorescence signal of cell+medium group (containing 0.5% DMSO).
A general note: Cellular ATP, detected with luciferase, serves as a proxy for viable cell number.

For the next data set, the target named is T1, AXL kinase (Homo sapiens, UniProt P30530).
T1 construct: purchased Carna 08-107
T1 sequence (P30530 473-894 limits assumed): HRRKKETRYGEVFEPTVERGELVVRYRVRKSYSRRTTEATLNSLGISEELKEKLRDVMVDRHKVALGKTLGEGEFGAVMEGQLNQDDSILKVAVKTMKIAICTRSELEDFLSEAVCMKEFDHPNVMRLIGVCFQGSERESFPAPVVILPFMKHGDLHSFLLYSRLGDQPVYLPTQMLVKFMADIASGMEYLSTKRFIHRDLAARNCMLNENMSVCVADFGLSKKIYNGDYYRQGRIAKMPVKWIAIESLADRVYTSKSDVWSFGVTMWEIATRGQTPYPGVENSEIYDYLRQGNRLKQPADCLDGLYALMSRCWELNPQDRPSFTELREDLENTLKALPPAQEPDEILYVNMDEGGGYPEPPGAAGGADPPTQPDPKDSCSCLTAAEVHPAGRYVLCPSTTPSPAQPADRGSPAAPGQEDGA
The experiment in a line: Inhibitory activity of compound against AXL kinase (HTRF KinEASE). To be noted: AXL enzyme (Carna, 08-107), ATP 15 μM; "<" means below detection limit of the test. The format is biochemical. The gist of the method: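 AXL enzyme (final 0.016 ng/uL) was preincubated with compound (8 concentrations from 1 μM, ½ log steps) for 15 min at room temperature, then reacted with TK Substrate 3-biotin (final 1) and ATP (final 15 μM) for 45 min at 25° C. Phosphorylation was read by HTRF (TK antibody-cryptate, streptavidin-XL665, 1 h); IC50 from variable-slope dose-response fit.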
On the technique in general: Time-resolved FRET reads energy transfer from a long-lived donor to a nearby acceptor.

Structures are written as SMILES.

`CP(C)(=O)c1cc(Cl)ccc1Nc1nc(Nc2ccc3c(c2)CC[C@@H](N2CCCC2)CC3)ncc1Cl` [Example 52]: in data set [1], the highest level (Cmax) was 429 ng/mL, the Tmax was 0.5 h, the half-life was 2.42 h and the AUC(0-t) is 1150 ng·h/mL. In addition, inhibition in data set [2] was half-maximal at 5.32 nM (IC50). For the same compound, on AXL kinase, the IC50 was determined as 1.06 nM.

Regarding `CC(C)S(=O)(=O)c1ccccc1Nc1nc(Nc2ccc3c(c2)CC[C@@H](N2CCCC2)CC3)ncc1Cl` [Example 22, (S)-5-chloro-N^4-(2-(isopropylsulfo)phenyl)-N^2-(7-(pyrrolidin-1-yl)-6,7,8,9-tetrahydro-5H-benzo[7]annulen-2-yl)pyrimidine-2,4-diamine], the IC50 was 6.76 nM in data set [2] and 0.11 nM on AXL kinase.

As to `CNC(=O)c1cnccc1Nc1nc(Nc2ccc3c(c2)CC[C@@H](N2CCCC2)CC3)ncc1Cl` [Example 20, (S)-4-((5-chloro-2-((7-(pyrrolidin-1-yl)-6,7,8,9-tetrahydro-5H-benzo[7]annulen-2-yl)amino)pyrimidin-4-yl)amino)-N-methylnicotinamide], the IC50 stood at 5.96 nM in data set [2] and 1.93 nM against AXL kinase.

On to `CP(C)(=O)c1cc(CO)ccc1Nc1nc(Nc2ccc3c(c2)CC[C@@H](N2CCCC2)CC3)ncc1Cl` [Example 141, (S)-(2-((5-chloro-2-((7-(pyrrolidin-1-yl)-6,7,8,9-tetrahydro-5H-benzo[7]annulen-2-yl)amino)pyrimidin-4-yl)amino)-5-(hydroxymethyl)phenyl)dimethyl phosphine oxide], for which the concentration for half-maximal inhibition (IC50) in data set [2] came to 13.9 nM; against AXL kinase, 2.43 nM.

With `CNC(=O)c1ccccc1Nc1nc(Nc2ccc3c(c2)CC[C@@H](N2CCCC2)CC3)ncc1Cl` [Example 12, (S)-2-((5-chloro-2-((7-(pyrrolidin-1-yl)-6,7,8,9-tetrahydro-5H-benzo[7]annulen-2-yl)amino)pyrimidin-4-yl)amino)-N-methylbenzamide], the IC50 in data set [2] was 1.44 nM; against AXL kinase, < 0.11 nM.

`CP(C)(=O)c1cc(F)ccc1Nc1nc(Nc2ccc3c(c2)CC[C@@H](N2CCCC2)CC3)ncc1Cl` [Example 51, (S)-(2-((5-chloro-2-((7-(pyrrolidin-1-yl)-6,7,8,9-tetrahydro-5H-benzo[7]annulen-2-yl)amino)pyrimidin-4-yl)amino)-5-fluorophenyl)dimethyl phosphine oxide]: in data set [1], the concentration peaked (Cmax) at 419 ng/mL, the Tmax came to 0.5 h, the half-life was 2.17 h and the AUC(0-t) was 1070 ng·h/mL. The compound further came in with an IC50 in data set [2] of 4.53 nM. For the same compound, the half-maximal inhibitory concentration (IC50) at AXL kinase is 2.6 nM.

In the case of `NC(=O)c1ccccc1Nc1nc(Nc2ccc3c(c2)CC[C@@H](N2CCCC2)CC3)ncc1Cl` [Example 13, (S)-2-((5-chloro-2-((7-(pyrrolidin-1-yl)-6,7,8,9-tetrahydro-5H-benzo[7]annulen-2-yl)amino)pyrimidin-4-yl)amino)benzamide], the IC50 was 0.64 nM in data set [2] and < 0.11 nM at AXL kinase.

In the case of `O=C1NCc2cccc(Nc3nc(Nc4ccc5c(c4)CC[C@@H](N4CCCC4)CC5)ncc3Cl)c21` [Example 29, (S)-7-((5-chloro-2-(((7-(pyrrolidin-1-yl)-6,7,8,9-tetrahydro-5H-benzo[7]annulen-2-yl)amino))pyrimidin-4-yl)amino)isoindolin-1-one], the IC50 was 3.23 nM in data set [2] and 0.34 nM on AXL kinase.

For `CNC(=O)c1cc(Cl)ccc1Nc1nc(Nc2ccc3c(c2)CC[C@@H](N2CCCC2)CC3)ncc1Cl` [Example 36, (S)-5-chloro-2-((5-chloro-2-((7-(pyrrolidin-1-yl)-6,7,8,9-tetrahydro-5H-benzo[7]annulen-2-yl)amino)pyrimidin-4-yl)amino)-N-methylbenzamide], the results for the IC50 (in data set [2]; against AXL kinase) were 5.12 nM and 0.36 nM, respectively.

In the case of `CC(C)(O)c1ccc(Nc2nc(Nc3ccc4c(c3)CC[C@@H](N3CCCC3)CC4)ncc2Cl)c(P(C)(C)=O)c1` [Example 138], the results for the IC50 (in data set [2]; on AXL kinase) were 41.3 nM and 5.29 nM, respectively.

For the compound `CC(C)(O)c1ccccc1Nc1nc(Nc2ccc3c(c2)CC[C@@H](N2CCCC2)CC3)ncc1Cl` [Example 15, (S)-2-(2-((5-chloro-2-((7-(pyrrolidin-1-yl)-6,7,8,9-tetrahydro-5H-benzo[7]annulen-2-yl)amino)pyrimidin-4-yl)amino)phenyl)propan-2-ol], the IC50 is 9.15 nM in data set [2] and 2.41 nM at AXL kinase.

Consider `CP(C)(=O)c1cc(F)c(Cl)cc1Nc1nc(Nc2ccc3c(c2)CC[C@@H](N2CCCC2)CC3)ncc1Cl` [Example 118, (S)-(4-chloro-2-((5-chloro-2-((7-(pyrrolidin-1-yl)-6,7,8,9-tetrahydro-5H-benzoannulen-2-yl)amino)pyrimidin-4-yl)amino)-5-fluorophenyl)dimethyl phosphine oxide], for which the IC50 came out at 30.3 nM in data set [2] and 5.45 nM at AXL kinase.

As to `CN(C)S(=O)(=O)c1ccccc1Nc1nc(Nc2ccc3c(c2)CC[C@@H](N2CCCC2)CC3)ncc1Cl` [Example 1, (S)-2-((5-chloro-2-((7-(pyrrolidin-1-yl)-6,7,8,9-tetrahydro-5H-benzo[7]annulen-2-yl)amino)pyrimidin-4-yl)amino)-N,N-dimethyl benzenesulfonamide], the figures for the IC50 (in data set [2]; against AXL kinase) were 6.83 nM and 0.33 nM, respectively.

Turning to `O=C(NC1CCOC1)c1ccccc1Nc1nc(Nc2ccc3c(c2)CC[C@@H](N2CCCC2)CC3)ncc1Cl` (some centres unmarked) [Example 39], the IC50 came to 6.4 nM in data set [2] and 2.59 nM against AXL kinase.

`CS(=O)(=O)c1ccccc1Nc1nc(Nc2ccc3c(c2)CC[C@@H](N2CCCC2)CC3)ncc1Cl` [Example 23, (S)-5-chloro-N^4-(2-(methylsulfonyl)phenyl)-N^2-(7-(pyrrolidin-1-yl)-6,7,8,9-tetrahydro-5H-benzo[7]annulen-2-yl)pyrimidine-2,4-diamine]: the IC50 worked out at 7.11 nM in data set [2] and 1.38 nM on AXL kinase.

In general, Cmax refers to the peak of the concentration-time curve. As usually defined, the Tmax is the time from dosing to the highest level. For orientation: half-life means the time in which the quantity being followed falls by half. Low values mean rapid decline, high ones slow decline. A word on the IC50: it is the point on the concentration scale where inhibition reaches its midpoint. A low value points to greater potency.
